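Interpolation was linear, between the two tested concentrations surrounding the appropriate level; five concentrations were tested over 48 hours in 96-well plates. TGI denotes the concentration required for complete inhibition of growth.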
Experiments:
Assay in all cases: growth of human tumour cells (NCI), 48 h
[1] = system: NCI-H460 lung
[2] = system: A549 NSCLC
[3] = system: HOP-92 NSCLC
[4] = system: HT29 colon
[5] = system: MCF7 breast
[6] = system: OVCAR-3 ovarian
[7] = system: DU-145 prostate
[8] = system: HOP-62 NSCLC
[9] = system: KM12 colon
[10] = system: COLO 205 colon
[11] = system: PC-3 prostate
[12] = system: SF-295 CNS
[13] = system: OVCAR-5 ovarian
[14] = system: HS 578T breast
[15] = system: SNB-75 CNS
[16] = system: UACC-257 melanoma
[17] = system: HCT-116 colon
[18] = system: HCT-15 colon
[19] = system: CAKI-1 renal
[20] = system: UO-31 renal

## C=CCN1CCC(OC(=O)C(O)(C#CC)C2CCCC2)CC1 (stereo not given)
[1]
  TGI: > 100 µM
[2]
  TGI: > 100 µM
[3]
  TGI: > 100 µM
[4]
  TGI: > 100 µM
[5]
  TGI: > 100 µM
[6]
  TGI: > 100 µM
[7]
  TGI: > 100 µM
[8]
  TGI: > 100 µM
[9]
  TGI: > 100 µM
[10]
  TGI: > 100 µM
[11]
  TGI: > 100 µM
[12]
  TGI: > 100 µM
[13]
  TGI: > 100 µM
[14]
  TGI: > 100 µM
[15]
  TGI: > 100 µM
[16]
  TGI: > 100 µM
[17]
  TGI: > 100 µM
[18]
  TGI: > 100 µM
[19]
  TGI: > 100 µM
[20]
  TGI: > 100 µM

## Cc1ccc(-c2nc(C)c(C(=O)Nc3ccc(Cl)cc3)s2)cc1
[1]
  TGI: > 100 µM
[2]
  TGI: > 100 µM
[3]
  TGI: 70.2 µM
[4]
  TGI: > 100 µM
[5]
  TGI: > 100 µM
[6]
  TGI: 98.6 µM
[7]
  TGI: > 100 µM
[8]
  TGI: 26.2 µM
[9]
  TGI: > 100 µM
[10]
  TGI: > 100 µM
[11]
  TGI: > 100 µM
[12]
  TGI: 33.7 µM
[13]
  TGI: > 100 µM
[14]
  TGI: 62.1 µM
[15]
  TGI: 28.3 µM
[16]
  TGI: > 100 µM
[17]
  TGI: 41.2 µM
[18]
  TGI: > 100 µM
[19]
  TGI: 40.8 µM
[20]
  TGI: 49.3 µM

## CC1(C)[C@H](C(=O)O)N2C(=O)[C@@H](NS(=O)(=O)c3ccc([N+](=O)[O-])cc3)[C@H]2S1(=O)=O
[1]
  TGI: > 100 µM
[2]
  TGI: > 100 µM
[3]
  TGI: > 100 µM
[4]
  TGI: > 100 µM
[5]
  TGI: > 100 µM
[6]
  TGI: > 100 µM
[7]
  TGI: > 100 µM
[8]
  TGI: > 100 µM
[9]
  TGI: > 100 µM
[10]
  TGI: > 100 µM
[11]
  TGI: > 100 µM
[12]
  TGI: > 100 µM
[13]
  TGI: > 100 µM
[14]
  TGI: > 100 µM
[15]
  TGI: > 100 µM
[16]
  TGI: > 100 µM
[17]
  TGI: > 100 µM
[18]
  TGI: > 100 µM
[19]
  TGI: > 100 µM
[20]
  TGI: > 100 µM

## O=C1c2c(Cl)c(Cl)c(Cl)c(Cl)c2C(=O)N1CCN(c1c(Cl)ssc1=O)c1c(Cl)ssc1=O
[1]
  TGI: > 100 µM
[2]
  TGI: > 100 µM
[3]
  TGI: 35.5 µM
[4]
  TGI: 35.6 µM
[5]
  TGI: 44.8 µM
[6]
  TGI: 36.6 µM
[7]
  TGI: 36.7 µM
[8]
  TGI: > 100 µM
[9]
  TGI: > 100 µM
[10]
  TGI: 35 µM
[11]
  TGI: 56.8 µM
[12]
  TGI: > 100 µM
[13]
  TGI: > 100 µM
[14]
  TGI: > 100 µM
[15]
  TGI: > 100 µM
[16]
  TGI: 31.5 µM
[17]
  TGI: 29.9 µM
[18]
  TGI: 41.1 µM
[19]
  TGI: 34.7 µM
[20]
  TGI: 32.3 µM

## NCCSc1nc2ccccc2s1
[1]
  TGI: > 100 µM
[2]
  TGI: > 100 µM
[3]
  TGI: 71 µM
[4]
  TGI: > 100 µM
[5]
  TGI: 98.1 µM
[6]
  TGI: > 100 µM
[7]
  TGI: > 100 µM
[8]
  TGI: 62.3 µM
[9]
  TGI: > 100 µM
[10]
  TGI: > 100 µM
[11]
  TGI: > 100 µM
[12]
  TGI: 73.2 µM
[13]
  TGI: > 100 µM
[14]
  TGI: 76.4 µM
[15]
  TGI: 62.1 µM
[16]
  TGI: > 100 µM
[17]
  TGI: > 100 µM
[18]
  TGI: > 100 µM
[19]
  TGI: > 100 µM
[20]
  TGI: > 100 µM

## Brc1ccc2[nH]cc(-c3csc(-c4ccccn4)n3)c2c1
[1]
  TGI: 22.4 µM
[2]
  TGI: > 70.3 µM
[3]
  TGI: > 95.8 µM
[4]
  TGI: 38.7 µM
[5]
  TGI: > 100 µM
[6]
  TGI: > 38 µM
[7]
  TGI: > 86.5 µM
[8]
  TGI: > 45.5 µM
[9]
  TGI: > 100 µM
[10]
  TGI: > 56.3 µM
[11]
  TGI: 51.7 µM
[12]
  TGI: > 26.4 µM
[13]
  TGI: > 100 µM
[14]
  TGI: > 100 µM
[15]
  TGI: 36.4 µM
[16]
  TGI: > 85.2 µM
[17]
  TGI: 50.9 µM
[18]
  TGI: > 100 µM
[19]
  TGI: > 94.9 µM
[20]
  TGI: > 100 µM

## O=C1/C(=C/c2ccccc2)CCCC1CN1CCCCC1 (stereo not given)
[1]
  TGI: 32.4 µM
[2]
  TGI: 34.9 µM
[3]
  TGI: 6.05 µM
[4]
  TGI: 2.98 µM
[5]
  TGI: 1.69 µM
[6]
  TGI: 3.24 µM
[7]
  TGI: 27.3 µM
[8]
  TGI: 35.5 µM
[9]
  TGI: 2.78 µM
[10]
  TGI: 10.4 µM
[11]
  TGI: 24.1 µM
[12]
  TGI: 33.6 µM
[13]
  TGI: 33.8 µM
[14]
  TGI: 16.9 µM
[15]
  TGI: 20.5 µM
[16]
  TGI: 22 µM
[17]
  TGI: 3.15 µM
[18]
  TGI: 4.85 µM
[19]
  TGI: 3.2 µM
[20]
  TGI: 3.82 µM

## Nc1cc2c3c(c1)Oc1cc(N)cc4c1C3c1c(cc(N)cc1O4)O2
[1]
  TGI: > 100 µM
[2]
  TGI: > 100 µM
[3]
  TGI: > 100 µM
[4]
  TGI: > 63.1 µM
[5]
  TGI: > 60 µM
[6]
  TGI: 51.6 µM
[7]
  TGI: 46.7 µM
[8]
  TGI: > 88.1 µM
[9]
  TGI: > 84.2 µM
[10]
  TGI: 34.3 µM
[11]
  TGI: 98.3 µM
[12]
  TGI: > 96.6 µM
[13]
  TGI: > 100 µM
[14]
  TGI: > 100 µM
[15]
  TGI: > 48.8 µM
[16]
  TGI: > 85.1 µM
[17]
  TGI: 75.5 µM
[18]
  TGI: > 31.6 µM
[19]
  TGI: 36.1 µM
[20]
  TGI: > 100 µM

## O=C(/C=C1\N=C(c2ccccc2)N(c2nc3ccc(Sc4ccccc4)cc3[nH]2)C1=O)/C=C/c1ccccc1
[1]
  TGI: > 100 µM
[2]
  TGI: > 100 µM
[3]
  TGI: > 100 µM
[4]
  TGI: 92.8 µM
[5]
  TGI: > 100 µM
[6]
  TGI: > 100 µM
[7]
  TGI: > 100 µM
[8]
  TGI: > 100 µM
[9]
  TGI: > 100 µM
[10]
  TGI: 30.6 µM
[11]
  TGI: > 100 µM
[12]
  TGI: > 100 µM
[13]
  TGI: > 100 µM
[14]
  TGI: > 100 µM
[15]
  TGI: 55.9 µM
[16]
  TGI: > 100 µM
[17]
  TGI: > 100 µM
[18]
  TGI: > 100 µM
[19]
  TGI: > 100 µM
[20]
  TGI: > 100 µM

## N#Cc1c(N2CCCC2)nsc1NCc1ccccc1
[1]
  TGI: > 100 µM
[2]
  TGI: > 100 µM
[3]
  TGI: > 100 µM
[4]
  TGI: > 100 µM
[5]
  TGI: > 100 µM
[6]
  TGI: > 100 µM
[7]
  TGI: > 100 µM
[8]
  TGI: > 100 µM
[9]
  TGI: > 100 µM
[10]
  TGI: > 100 µM
[11]
  TGI: > 100 µM
[12]
  TGI: > 100 µM
[13]
  TGI: > 100 µM
[14]
  TGI: > 100 µM
[15]
  TGI: > 100 µM
[16]
  TGI: > 100 µM
[17]
  TGI: > 100 µM
[18]
  TGI: > 100 µM
[19]
  TGI: > 100 µM
[20]
  TGI: 65 µM

## CC(C)(C)OC(=O)NCCCCC(N)C(N)=O (stereo not given)
[1]
  TGI: > 100 µM
[2]
  TGI: > 100 µM
[3]
  TGI: > 100 µM
[4]
  TGI: > 100 µM
[5]
  TGI: > 100 µM
[6]
  TGI: > 100 µM
[7]
  TGI: > 100 µM
[8]
  TGI: > 100 µM
[9]
  TGI: > 100 µM
[10]
  TGI: > 100 µM
[11]
  TGI: > 100 µM
[12]
  TGI: > 100 µM
[13]
  TGI: > 100 µM
[14]
  TGI: > 100 µM
[15]
  TGI: > 100 µM
[16]
  TGI: > 100 µM
[17]
  TGI: > 100 µM
[18]
  TGI: > 100 µM
[19]
  TGI: > 100 µM
[20]
  TGI: > 100 µM

## CCOC(=O)CN1C(=O)c2c(c(C)n(-c3ccccc3)c2C)C1=O
[1]
  TGI: > 100 µM
[2]
  TGI: > 100 µM
[3]
  TGI: > 100 µM
[4]
  TGI: > 100 µM
[5]
  TGI: > 100 µM
[6]
  TGI: > 100 µM
[7]
  TGI: > 100 µM
[8]
  TGI: > 100 µM
[9]
  TGI: > 100 µM
[10]
  TGI: > 100 µM
[11]
  TGI: > 100 µM
[12]
  TGI: > 100 µM
[13]
  TGI: > 100 µM
[14]
  TGI: > 100 µM
[15]
  TGI: > 100 µM
[16]
  TGI: > 100 µM
[17]
  TGI: > 100 µM
[18]
  TGI: > 100 µM
[19]
  TGI: > 100 µM
[20]
  TGI: > 100 µM

Reference: PubChem BioAssay (NCI)
